Twelve molecules from patent US20230312605A1, “PYRROLO[2,1-F][1,2,4]TRIAZINES AND PREPARATION AND USES THEREOF” (BioSplice Therapeutics, Inc., priority 2021, published 2023) can be followed below.

The target of the assay is recombinant DYRK1A kinase (Homo sapiens (Human), UniProt Q13627). Put plainly: DYRK1A kinase assay (Ser/Thr 18 peptide Z-lyte FRET assay). The conditions noted are these: recombinant DYRK1A 0.25 µg/mL, ATP 15 µM, Ser/Thr peptide 18 4 µM, one hour at room temperature; table head prints EC50, method says IC50. The assay is classed as biochemical. The method, then: Representative compounds were screened using the assay procedure for DYRK1A kinase activity as described below.
Each compound was dissolved in DMSO as a 10 mM stock and used to prepare compound source plates. Serial dilution (1:3, 11-point dose-response curves from 10 µM to 0.00016 µM) and compound transfer was performed using the ECHO 550 (Labcyte, Sunnyvale, CA) into 1536-well black-walled round bottom plates (Corning).
The DYRK1A kinase assay was run using the Ser/Thr 18 peptide Z-lyte assay kit according to manufacturer’s instructions (Life Technologies- a Division of Thermo-Fisher). This is a non-radioactive assay using fluorescence resonance energy transfer (FRET) between coumarin and fluorescein to detect kinase activity which is represented as a ratio of coumarin emission/fluorescein emission.
Briefly, recombinant DYRK1A kinase, ATP and Ser/Thr peptide 18 were prepared in 1X Kinase buffer to final concentrations of 0.25 µg/mL, 15 µM, and 4 µM respectively. The mixture was allowed to incubate with the representative compounds for one hour at room temperature. All reactions were performed in duplicate. Unphosphorylated (“0% Control”) and phosphorylated (“100% control”) forms of Ser/Thr 18 served as control reactions. Additionally, an 11-point dose-response curve of Staurosporine (1uM top) was run to serve as a positive compound control.
After incubation, Development Reagent A was diluted in Development Buffer then added to the reaction and allowed to further incubate for one hour at room temperature. The plate was read at Ex 400 Em 455 to detect the coumarin signal and Ex 400 Em 520 to measure the signal (EnVision Multilabel Plate Reader, PerkinElmer).
The Emission ratio (Em) was calculated as a ratio of the coumarin (C) emission signal (at 445 nm)/Fluorescein (F) emission signal (at 520 nm). The percent phosphorylation was then calculated using the following formula: [1 — ((Em ratio X F100%)—C100%)/ ((C0%—C100%) + (Em ratio X (F100% - F0%)))]. Dose-response curves were generated, and inhibitory concentration (IC50) values were calculated using non-linear regression curve fit in the Dotmatics’ Studies Software (Bishops Stortford, UK).

Take `Cc1nc2ccc(-c3ccn4nc(N[C@H]5CC[C@@](C)(O)CC5)ncc34)nc2n1CC(C)C` [Compound 1829, cis-4-((5-(3-Isobutyl-2-methyl-3H-imidazo[4,5-b]pyridin-5-yl)pyrrolo[2,1-f] [1,2,4]triazin-2-yl)amino)-1-methylcyclohexan-1-ol]: the EC50 is 33 nM.
As for `c1cn2cc(-c3ccn4nc(NC5CC6(CNC6)C5)ncc34)cnc2n1` [Compound 1732, 5-(Imidazo[1,2-a]pyrimidin-6-yl)-N-(2-azaspiro[3.3]heptan-6-yl)pyrrolo[2,1-f][1,2,4]triazin-2-amine], the figure is 13 nM; as for `Cc1nc2ccc(-c3ccn4nc(N[C@@H]5CN(C)C[C@H]5F)ncc34)nc2n1CC(F)F` [Compound 1902], 6 nM; as for `Cc1nc2ncc(-c3ccn4nc(N[C@H]5CC[C@@H](OC(F)(F)F)CC5)ncc34)nc2n1CC(F)F` [Compound 1970, 5-(1-(2,2-Difluoroethyl)-2-methyl-1H-imidazo[4,5-b]pyrazin-6-yl)-N-(cis-4-(trifluoromethoxy)cyclohexyl)pyrrolo[2,1-f][1,2,4]triazin-2-amine], 7 nM.
The same measure for `[2H]C([2H])([2H])O[C@H]1CC[C@@H](Nc2ncc3c(-c4cnc5nccn5c4)ccn3n2)CC1` [Compound 1802, 5-(Imidazo[1,2-a]pyrimidin-6-yl)-N-(cis-4-(methoxy-ds)cyclohexyl)pyrrolo [2,1-f][1,2,4] triazin-2-amine]: 5 nM; for `FC(F)(F)O[C@H]1CC[C@@H](Nc2ncc3c(-c4cnc5ncccc5c4)ccn3n2)CC1` [Compound 1798, 5-(1,8-Naphthyridin-3-yl)-N-(cis-4-(trifluoromethoxy)cyclohexyl)pyrrolo [2,1-f][1,2,4]triazin-2-amine]: 4 nM; for `Cc1nc2ccc(-c3ccn4nc(N[C@H]5CC[C@@H](O)CC5)ncc34)nc2n1CC(F)F` [Compound 1109, cis-4-((5-(3-(2,2-Difluoroethyl)-2-methyl-3H-imidazo[4,5-b]pyridin-5-yl)pyrrolo[2,1-f][1,2,4]triazin-2-yl)amino)cyclohexan-1-ol]: 6 nM.
Consider `CC(=O)N1CCC(Nc2ncc3c(-c4ccc5nc(C)n(CC(F)F)c5n4)ccn3n2)CC1` [Compound 1857, 1-(4-((5-(3-(2,2-Difluoroethyl)-2-methyl-3H-imidazo[4,5-b]pyridin-5-yl)pyrrolo[2,1-f][1,2,4]triazin-2-yl)amino)piperidin-1-yl)ethan-1-one], for which the concentration giving a half-maximal response (EC50) came out at 3 nM.
As for `Cc1nc2ccc(-c3ccn4nc(N[C@H]5C[C@H](N6CCOCC6)C5)ncc34)nc2n1CC(F)F` [Compound 1893, 5-(3-(2,2-Difluoroethyl)-2-methyl-3H-imidazo[4,5-b]pyridin-5-yl)-N-(trans-3-morpholinocyclobutyl)pyrrolo[2,1-f][1,2,4]triazin-2-amine], the figure is 5 nM; as for `COCCNc1ncc2c(-c3ccc4nccn4c3)ccn2n1` [Compound 9, 5-(Imidazo[1,2-a]pyridin-6-yl)-N-(2-methoxyethyl)pyrrolo[2,1-f][1,2,4] triazin-2-amine], 81 nM.
With `CO[C@H]1CC[C@@H](Nc2ncc3c(-c4cnc5nc(C)n(CC(F)F)c5c4)ccn3n2)CC1` [Compound 685, 5-(1-(2,2-Difluoroethyl)-2-methyl-1H-imidazo[4,5-b]pyridin-6-yl)-N-(cis-4-methoxycyclohexyl)pyrrolo[2,1-f] [1,2,4]triazin-2-amine], the EC50 was 3 nM.
Turning to `Cc1nc2ccc(-c3ccn4nc(NC5CCN(S(C)(=O)=O)CC5)ncc34)nc2n1CC(F)F` [Compound 1861, 5-(3-(2,2-Difluoroethyl)-2-methyl-3H-imidazo[4,5-b]pyridin-5-yl)-N-(1-(methylsulfonyl)piperidin-4-yl)pyrrolo[2,1-f][1,2,4]triazin-2-amine], the EC50 was 7 nM.
